Data taken from US9788567B2, “Ergothioneine-containing hens egg and method of preparing hens feed for producing same” (Origin Biotechnology Kabushikikaisha, priority 2013, dated 2017).

Legend:
[1] = in vivo
Method: (§1) Thus, 14 ml of the obtained concentrate solution containing the ergothioneine were mixed in 120 g of the feed for hen used generally, it were mixed with the mixing stirrer 4, and the feed for the laying hen 41 was obtained. The feed for the laying hen 41 of 120 g per a hen was continuously fed to the laying hen for 36 days, dividing into four times a day.
The feeding and raising to the laying hen, and the measure of the ergothioneine content in the egg white of the egg extracted in the meantime are performed in the following ways. Numbering was carried out to ten hens, respectively, and it stored one hen in the raising gauge, and one egg (a total of ten eggs) which each hen will lay on the 1 day was extracted, numbering was carried out to each egg, and the ergothioneine content in the egg white of each egg was measured. In a fixed amount of the ergothioneine, the chromatogram of an internal standard substance and the ergothioneine are obtained from the egg white which preliminarily added the internal standard substance of the known amount by a high performance chromatography, the amount of the ergothioneine is measured from the ratio of the peak area of the ergothioneine to that of the internal standard substance.
In the measurement of the ergothioneine content in the egg white, the feed for the hen used generally (the general feed for the hen) was fed for 5 days (minus fifth day to minus first day), the feed of the laying hen which mixed the concentrate solution containing the ergothioneine continuously was fed for 36 days (0 day to 36th day), the feed of the laying hen was stopped after that, the general feed for the hen was started, and it carried out till 71th day. […] The ergothioneine content in each egg white is measured, and the average value of the ergothioneine content in the egg white of these ten eggs is denoted by a graph.

[2] = in vivo; remark: listed apart in the source
Method: as §1
The feeding and raising to the laying hen, and the measurement of the ergothioneine content in the egg yolk of the egg extracted in the meantime are performed in the same way as the example 2. In a fixed amount of the ergothioneine in the measurement of the ergothioneine content in the egg yolk of each egg here, the chromatogram of an internal standard substance and the ergothioneine are obtained from the egg yolk which preliminarily added the internal standard substance of the known amount by a high performance chromatography, the amount of the ergothioneine is measured from the ratio of the peak area of the ergothioneine to that of the internal standard substance.
In FIG. 4, one egg (a total of ten eggs) which each of the ten hens will lay on the 1 day is extracted for every lapsed days which start of the feed of the general feed for the hen, start of the feed of the laying hen, start of the feed of the general feed for the hen to stop of the feed of the laying hen and continue on the 71th day. The ergothioneine content in each egg yolk is measured, and the average value of the ergothioneine content in the egg yolk of these ten eggs is denoted by a graph.

SMILES: C[N+](C)(C)[C@@H](Cc1c[nH]c(=S)[nH]1)C(=O)[O-] [ergothioneine]
- day on which ergothioneine content in the egg white returned to the initial value [1]: 71 days
- increase of ergothioneine content in the egg white over initial value [1]: about 12.8 times
- start of concentration of ergothioneine to the egg white [1]: first day
- day on which ergothioneine content in the egg yolk returned to the initial value [2]: 58 days
- increase of ergothioneine content in the egg yolk over initial value [2]: about 8.5 times
- start of concentration of ergothioneine to the egg yolk [2]: second day
